pEC50, pIC50: −log10 of the molar value. Like-named read-outs stand apart in the source and are kept apart here.
How the values were obtained:
[1] = target: MCL1/Bim (Homo sapiens (Human), UniProt Q07820); assay: MCL1/Bim Binding AlphaLISA Assay; details: recombinant human 6xHis-MCL1 (171-327), biotinylated Bim peptide (51-76)
Protocol: MCL1/Bim Binding AlphaLISA Assay.
Inhibition of the MCL1 and Bim interaction was measured in the following AlphaLISA assay.
Recombinant human MCL1 protein (C-terminal 6×His Tagged MCL1 containing residues 171-327) was generated at Gilead Sciences, Inc. (Foster City, Calif.). A biotinylated peptide derived from human Bim (residues 51-76) was purchased from CPC Scientific (Sunnyvale, Calif.). (CPC 834113). AlphaLISA anti-6His- acceptor beads (AL128R), AlphaScreen Streptavidin donor beads (6760002B), and Proxiplate-384 Plus (6008289) were purchased from PerkinElmer.
The AlphaLISA assay was performed in a 384-well Proxiplate in a total volume of […]. The reaction mixture contained 0.0625 nM 6×His-MCL1 (171-327), 0.0625 nM biotinylated-Bim peptide, 10 μg/mL AlphaLISA anti-6×His-AlphaLISA acceptor beads, 40 μg/mL AlphaScreen streptavidin donor beads, and serially diluted test compounds in the binding buffer (20 mM Hepes, pH 7.5 (Teknova H1035); 150 mM NaCl (Promega V4221); 0.002% Brij 35 (Thermo Scientific 20150); 1 mM Dithiothreitol (DTT) Solution (Affymetrix 70726); 0.01% BSA (BioLabs B9000S)). 1,000× test compounds were pre-spotted onto 384-well Proxiplate (Labcyte Echo) by Echo 555 Liquid Handler (Labcyte Inc., San Jose, Calif.) followed by incubation of 5 μL MCL1(171-327) for 1 hour. Then 5 μL Bim (51-76) was added and incubated for 2 hours. Five μL AlphaLISA anti-6His-AlphaLISA acceptor beads were then added for 1 hour followed by addition of 5 μL AlphaScreen streptavidin donor beads for 1 hour. The reaction plates were then read on an Envision multimode reader (PerkinElmer) using AlphaScreen settings. Percent inhibition was calculated as shown below: % Inhibition=100%*(Well−Neg)/(Pos−Neg) Neg: negative control, DMSO Pos: positive control, no MCL1 protein, no biotinylated-Bim peptide

[2] = system: SKBR3 cells; assay: SKBR3 Cell Viability Assay; type: cell-based; details: CellTiter Glo, read-out: MCL1 CV SKBR3 EC50
Protocol: SKBR3 Cell Viability Assay Materials
SKBR3 Cells (ATCC HTB-30) were obtained from ATCC (Manassas, Va.) and cultured in McCoy 5A's medium (ATCC 30-2007)+10% fetal bovine serum (SH30071.03, HyClone, Pittsburgh, Pa.) plus 1× Penicillin-Streptomycin L-glutamine (Corning 30-009-CI, Corning, N.Y.).
The cell viability assay was conducted in a 384-well tissue culture plate (Grenier 781086, Monroe, N.C.) in a total volume of 70 μL. Test compounds were prepared in 1,000×, serially diluted, and pre-spotted into 384-well tissue culture plate by Echo 555 Liquid Handler (Labcyte Inc., San Jose, Calif.). Seventy μL of 6,000 SKBR3 cells were dispensed into each well of the plate and incubated at 37° C. with 5% CO2 for 72 hours. At the end of incubation, 2× CellTiter Glo (CTG) reagents (1 part buffer with 2 parts substrate) (Promega, Madison, Wis.) were prepared, and the plate and the reagent were equilibrated to room temperature for 30 minutes. CTG reagent was added to each plate by Biomek FX at 20 μL/well with 5 times pipetting and mixing to induce cell lysis. Luminescence was read by Envision multimode reader (PerkinElmer). Percent inhibition was calculated as followed: % Inhibition=100%*(Well−Neg)/(Pos−Neg) Neg, negative control, DMSO Pos, positive control, 10 μM Puromycin

[3] = Homo sapiens, SK-BR-3, 72 hours

Chain of MCL1/Bim (Q07820 171-327): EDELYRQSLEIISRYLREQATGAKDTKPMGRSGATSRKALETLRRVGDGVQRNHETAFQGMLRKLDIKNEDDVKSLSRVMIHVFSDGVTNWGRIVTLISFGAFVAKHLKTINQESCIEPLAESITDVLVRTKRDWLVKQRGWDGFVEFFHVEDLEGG

Row | Structure (SMILES) | pIC50 [1] | pEC50 [2, 3] | pEC50 ([2]; 72 hours)
1 | CO[C@H]1/C=C/C[C@H](C)C[S@@](=O)(Nc2cnccn2)=NC(=O)c2ccc3c(c2)N(C[C@@H]2CC[C@H]21)C[C@@]1(CCCc2cc(Cl)ccc21)CO3 [Example 1] | 9.66 | 5.86 | –
2 | CO[C@H]1/C=C/C[C@H](C)[C@@H](C)[S@@](=O)(NC(=O)c2cc3n(c2)CCOC3)=NC(=O)c2ccc3c(c2)N(C[C@@H]2CC[C@H]21)C[C@]1(CO3)C[C@@H]2C[C@@H]2c2cc(Cl)ccc21 [Example 172] | 9.22 | 6.80 | –
3 | COc1nn(C)cc1C(=O)N[S@@]1(=O)=NC(=O)c2ccc3c(c2)N(C[C@@H]2CC[C@H]2[C@@H](OCCN2CCC(OC)CC2)/C=C/C[C@H](C)C1)C[C@@]1(CCCc2cc(Cl)ccc21)CO3 [Example 63] | 10.47 | 7.60 | –
4 | COc1nn(C)cc1C(=O)N[S@@]1(=O)=NC(=O)c2ccc3c(n2)N(C[C@@H]2CC[C@H]2[C@@H](OC)/C=C\C[C@H](C)C1)C[C@@]1(CCCc2cc(Cl)ccc21)CO3 [Example 192] | 10.52 | – | 6.87
5 | COc1nn(C)cc1C(=O)N[S@@]1(=O)=NC(=O)c2ccc3c(c2)N(C[C@@H]2CC[C@H]2[C@](O)(CCN2CCOCC2)/C=C/C[C@H](C)C1)C[C@@]1(CCCc2cc(Cl)ccc21)CO3 [Example 114] | 9.50 | – | 7.29
6 | COc1nn(C)cc1C(=O)N[S@@]1(=O)=NC(=O)c2ccc3c(c2)N(C[C@@H]2CC[C@H]2[C@@H](OC)[C@H](OC)/C=C\[C@H](C)C1)C[C@@]1(CCCc2cc(Cl)ccc21)CO3 [Example 133] | 9.19 | 5.86 | –
7 | COc1nn(C)cc1C(=O)N[S@@]1(=O)=NC(=O)c2ccc3c(c2)N(C[C@@H]2CC[C@H]2[C@@](O)(CCN2CCOCC2)/C=C/C[C@H](C)C1)C[C@@]1(CCCc2cc(Cl)ccc21)CO3 [Example 113] | 9.88 | – | 7.45
8 | COc1nn(C)cc1C(=O)N[S@@]1(=O)=NC(=O)c2ccc3c(c2)N(C[C@@H]2CC[C@H]2[C@@H](OC)/C=C/[C@H](OCc2ccncc2)[C@H](C)C1)C[C@@]1(CCCc2cc(Cl)ccc21)CO3 [Example 84] | 10.00 | 7.05 | –
9 | COc1nn(C)cc1C(=O)N[S@@]1(=O)=NC(=O)c2ccc3c(c2)N(C[C@@H]2CC[C@H]2[C@@](O)(CC(=O)N2CCOCC2)/C=C/C[C@H](C)C1)C[C@@]1(CCCc2cc(Cl)ccc21)CO3 [Example 98] | 10.51 | – | 7.13
10 | COc1nn(C)cc1C(=O)N[S@@]1(=O)=NC(=O)c2ccc3c(c2)N(C[C@@H]2CC[C@H]2[C@@H](OC)C[C@@H]2[C@H](OC[C@H]2C)[C@H](C)C1)C[C@@]1(CCCc2cc(Cl)ccc21)CO3 [Example 145] | 9.72 | – | 6.75
11 | COc1nn(C)cc1C(=O)N[S@@]1(=O)=NC(=O)c2ccc3c(c2)N(C[C@@H]2CC[C@H]2/C=C/[C@H]2OCCO[C@@H]2[C@H](C)C1)C[C@@]1(CCCc2cc(Cl)ccc21)CO3 [Example 154] | 9.49 | – | 5.83
12 | COCC(=O)O[C@H]1/C=C/[C@H](OC)[C@@H]2CC[C@H]2CN2C[C@@]3(CCCc4cc(Cl)ccc43)COc3ccc(cc32)C(=O)N=[S@](=O)(NC(=O)c2cn(C)nc2OC)C[C@H]1C [Example 73] | 10.33 | 7.86 | –
13 | CO[C@H]1/C=C/C[C@H](C)C[S@@](=O)(NC(=O)c2cnn(C)c2)=NC(=O)c2ccc3c(n2)N(C[C@@H]2CC[C@H]21)C[C@@]1(CCCc2cc(Cl)ccc21)CO3 [Example 185] | 10.40 | 7.76 | –
14 | COc1nn(C)cc1C(=O)N[S@@]1(=O)=NC(=O)c2ccc3c(c2)N(C[C@@H]2CC[C@H]2[C@@H](OC)/C=C/[C@@H](OC)[C@H](C)[C@H]1C)C[C@@]1(CCCc2cc(Cl)ccc21)CO3 [Example 68] | 9.70 | – | 7.03
15 | COc1nn(C)cc1C(=O)N[S@@]1(=O)=NC(=O)c2ccc3c(c2)N(C[C@@H]2CC[C@H]2[C@@](C)(OC)/C=C/C[C@H](C)C1)C[C@@]1(CCCc2cc(Cl)ccc21)CO3 [Example 95] | 8.36 | 5.44 | –
16 | COc1nn(C)cc1C(=O)N[S@@]1(=O)=NC(=O)c2ccc3c(c2)N(C[C@@H]2CC[C@H]2C(O)(C#CCN(C)C)/C=C/C[C@H](C)C1)C[C@@]1(CCCc2cc(Cl)ccc21)CO3 (stereo partly shown) [Example 110] | 10.35 | – | 7.56
17 | C=CCO[C@H]1/C=C/C[C@H](C)C[S@@](=O)(NC(=O)c2cn(C)nc2OC)=NC(=O)c2ccc3c(c2)N(C[C@@H]2CC[C@H]21)C[C@@]1(CCCc2cc(Cl)ccc21)CO3 [Example 54] | 10.04 | – | 6.99
18 | CO[C@H]1/C=C/C[C@H](C)C[S@@](=O)(Nc2nc(Cl)nc3nn(C)cc23)=NC(=O)c2ccc3c(c2)N(C[C@@H]2CC[C@H]21)C[C@@]1(CCCc2cc(Cl)ccc21)CO3 [Example 9] | 9.96 | 6.77 | –
19 | CC[C@H]1C/C=C/[C@H](OC)[C@@H]2CC[C@H]2CN2C[C@@]3(CCCc4cc(Cl)ccc43)COc3ccc(cc32)C(=O)N=[S@@](=O)(NC(=O)c2cnn(C)c2)C1 [Example 43] | 8.78 | – | 5.45
20 | COc1nn(C)cc1C(=O)N[S@@]1(=O)=NC(=O)c2ccc3c(c2)N(C[C@@H]2CC[C@H]2[C@@H](OC)/C=C/[C@H](OCc2nccn2C)[C@H](C)C1)C[C@@]1(CCCc2cc(Cl)ccc21)CO3 [Example 83] | 10.00 | 7.00 | –
21 | CO[C@H]1/C=C/C[C@H](C)C[S@@](=O)(NC(=O)c2cnn(C)c2)=NC(=O)c2ccc3c(c2)N(C[C@@H]2CC[C@H]21)C[C@]1(CO3)C[C@@H]2C[C@@H]2c2cc(Cl)ccc21 [Example 167] | 10.00 | 7.33 | –
22 | COc1nn(C)cc1C(=O)N[S@@]1(=O)=NC(=O)c2ccc3c(c2)N(C[C@@H]2CC[C@H]2[C@@H](OC)C[C@H]2CC(=O)O[C@@H]2[C@H](C)C1)C[C@@]1(CCCc2cc(Cl)ccc21)CO3 [Example 140] | 10.17 | 6.86 | –
23 | CCn1cc(C(=O)N[S@@]2(=O)=NC(=O)c3ccc4c(c3)N(C[C@@H]3CC[C@H]3[C@@H](OC)/C=C/C[C@H](C)C2)C[C@]2(CO4)SCCc3cc(Cl)ccc32)cn1 [Example 178] | 10.30 | 7.59 | –
24 | CO[C@H]1/C=C/C[C@H](C)[C@@H](C)[S@@](=O)(NC(=O)c2cc3n(c2)CCOC3)=NC(=O)c2ccc3c(c2)N(C[C@@H]2CC[C@H]21)C[C@]1(CO3)SCCc2cc(Cl)ccc21 [Example 181] | 9.57 | 7.24 | –
25 | COc1nn(C)cc1C(=O)N[S@@]1(=O)=NC(=O)c2ccc3c(c2)N(C[C@@H]2CC[C@H]2[C@@H](OC)[C@H]2CN(C)[C@H]4CO[C@H](C(C)C1)[C@@H]24)C[C@@]1(CCCc2cc(Cl)ccc21)CO3 (stereo partly shown) [Example 134] | 10.16 | – | 7.00
26 | CO[C@H]1/C=C/C[C@H](C)C[S@@](=O)(Nc2nc(C)nc3nn(C)cc23)=NC(=O)c2ccc3c(c2)N(C[C@@H]2CC[C@H]21)C[C@@]1(CCCc2cc(Cl)ccc21)CO3 [Example 12] | 9.89 | 7.41 | –
27 | CO[C@H]1/C=C/C[C@H](C)C[S@@](=O)(NC(=O)c2cnn(C)c2)=NC(=O)c2ccc3c(c2)N(C[C@@H]2CC[C@H]21)C[C@]1(CO3)SCCc2cc(Cl)ccc21 [Example 176] | 10.22 | 7.14 | –
28 | CO[C@H]1/C=C/C[C@H](C)C[S@@](=O)(Nc2nc(Cl)nc3cn(C)nc23)=NC(=O)c2ccc3c(c2)N(C[C@@H]2CC[C@H]21)C[C@@]1(CCCc2cc(Cl)ccc21)CO3 [Example 16] | – | 5.09 | –
